{"source": "patent US10881677B2", "about": "“Composition for modulating IRAK1” (Agency for Science, Technology and Research, priority 2015, dated 2021)", "type_in_all_cases": "cell-based", "key": {"SUM159PT": {"test_system": "SUM159PT", "test": "Paclitaxel EC50 in parental SUM159PT cells", "details": "Homo sapiens, SUM-159-PT, read-out: intrinsic EC50 to Paclitaxel", "description": "(§1) To establish the Paclitaxel acquired resistant TNBC cell lines, both SUM159PT and MDA231 cells were used. […] During these treatment cycles, only cells with a high intrinsic resistance or those which had acquired resistance to the drug survived. The cycle was further repeated until the stable resistant cell line (SUM159PR or MDA231PR) SUM159PR cells were stably maintained in 1 μM Paclitaxel and MDA231 in 75 nM of Paclitaxel with complete medium, making them at least ˜1000-fold more resistant than their parental cell lines.\n(§2) For cell proliferation assay, the optimal cell seeding was first determined empirically for all cell lines by examining the growth of a wide range of seeding densities in a 96-well format to identify conditions that permitted proliferation for 7 days. Cells were then plated at the optimal seeding density 24 h before siRNA or drug treatment in triplicate. Plates were incubated for 7 days at 37° C. in 5% CO2. Cells were then lysed with CellTiter-Glo (CTG) (Promega, Madison, Wis.) and chemiluminescent signal was detected with a microplate reader on Day 0, 1, 3, 5 and 7. In addition, an untreated plate of cells was harvested at the time of drug or siRNA addition (T0) to quantify the starting number of cells. CTG values obtained after the 7 day treatment were expressed as percentages of the T0 value and plotted against time of treatment."}, "p-IRAK1 (T209)": {"target": "T1, p-IRAK1 (T209) (Homo sapiens, UniProt P51617)", "T1 construct": "The whole cell lysate were extracted with the NE-PER kit (Pierce Biotechnology) and subjected to immunoprecipitation using 2 μg total-IRAK1 antibody; endogenous in cells; host or cells: TNBC cell lines (BT549, MB436, MB468, MDA231, MDA231-LM2, SUM159 and paclitaxel-resistant sublines)", "T1 sequence (P51617 whole entry)": "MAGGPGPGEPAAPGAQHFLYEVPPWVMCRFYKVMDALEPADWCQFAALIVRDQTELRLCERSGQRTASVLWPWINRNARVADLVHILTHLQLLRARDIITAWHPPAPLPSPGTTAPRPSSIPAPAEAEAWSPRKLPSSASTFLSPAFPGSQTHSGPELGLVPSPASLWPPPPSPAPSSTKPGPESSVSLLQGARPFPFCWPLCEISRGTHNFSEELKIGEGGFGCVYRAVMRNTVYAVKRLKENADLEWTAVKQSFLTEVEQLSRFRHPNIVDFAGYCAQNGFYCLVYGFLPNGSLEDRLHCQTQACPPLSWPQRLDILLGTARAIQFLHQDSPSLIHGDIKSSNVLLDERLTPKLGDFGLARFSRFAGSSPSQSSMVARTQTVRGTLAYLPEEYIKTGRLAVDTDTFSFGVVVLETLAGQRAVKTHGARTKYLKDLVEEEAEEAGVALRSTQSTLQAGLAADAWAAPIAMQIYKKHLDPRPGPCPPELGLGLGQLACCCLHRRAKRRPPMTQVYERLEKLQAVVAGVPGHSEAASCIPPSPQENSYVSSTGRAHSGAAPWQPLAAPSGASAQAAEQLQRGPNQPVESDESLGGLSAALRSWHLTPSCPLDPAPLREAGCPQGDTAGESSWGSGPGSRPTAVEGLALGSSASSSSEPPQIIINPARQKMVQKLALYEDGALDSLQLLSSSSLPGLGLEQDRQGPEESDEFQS", "test": "Western blot of p-IRAK1 in immunoprecipitated IRAK1", "details": "for induction of p-IRAK1 by chemotherapeutic agent: MDA231 (also SUM159) cells, PTX 5 nM, ADR 2 μM, Cisplatin 5 μM, up to 48 hours", "description": "Western Blotting was performed as described previously (8). IRAK1 (Cat no: #4359), IRAK4 (Cat no.: 4363), cleaved PARP (Cat no.: #9541), p38 MAPK (Cat no.: #9212), phospho-p38 MAPK (T180/Y182) (Cat no.: #9211), phospho-NF-KappaB p65 (S536) (Cat no. #3031) were purchased from Cell Signaling (Danvers, Mass.). Phospho-IRAK1 (T209) antibody was purchased from Assay Biotech (Sunnyvale, Calif., Cat no.: A1074) and phospho-IRAK1 (S376) antibody from Genetex (Irvine, Calif., Cat no.: GTX50994). MCL-1 antibody was purchased from Santa Cruz Biotechnology (Santa Cruz, Calif., Cat no.: sc-819). Actin was purchased from Sigma-Aldrich (St Louis, Mo., Cat no.: A5441). Detection of bands was performed with the ChemiDoc™ MP Imaging Systems (Bio-Rad, Hercules, Calif.) and bands were subjected to further densitometric analysis with Image Lab software (Version 4.1, Bio-rad, Hercules, Calif.).\nCo-IP was performed as described previously (9). The whole cell lysate were extracted with the NE-PER kit (Pierce Biotechnology) and subjected to immunoprecipitation using 2 μg total-IRAK1 antibody (Santa Cruz Biotech, Santa Cruz, Calif., Cat no.: sc-7883). The precipitated protein complex was captured using protein A-Agarose beads (Roche) and extensively washed with the washing buffer (50 mM Tris-HCl, 150 mM NaCl, 0.1% triton). The precipitated proteins were dissolved in SDS sample buffer along with 3 mM DTT, and subjected to immunoblotting analysis. Phospho-IRAK1 (T209) (Assay Biotechnology, Sunnyvale, Calif., Cat no.: A1074) was used for detection."}, "[1]": {"test_system": "IL1B, IL6 and IL8 mRNAs in MDA231 cells", "test": "qRT-PCR of cytokine mRNAs after chemotherapy", "details": "5 nM PTX, VCR 3 days", "description": "Total RNA was isolated by using Qiazol (Life technologies, Carlsbad, Calif.) and purified with the RNeasy Mini Kit (Qiagen, Valencia, Calif.). Reverse transcription and quantitative PCR assays were performed using High Capacity cDNA Archive kit and KAPA SyBr Fast qPCR kit (KAPA Biosystems, Wilmington, Mass.). For quantification of mRNA levels, 18S level was used as an internal control. All reactions were analyzed in an Applied Biosystems PRISM 7500 Fast Real-Time PCR system in 96-well plate format."}, "[2]": {"test_system": "BT549, MB436, MB468, MDA231 and MDA231-LM2 cells", "test": "Mammosphere formation assay", "details": "MDA231 cells, 10 nM Paclitaxel 4 days, remaining viable cells", "description": "Active growing cells were treated with 0.05% trypsin for 10 minutes then passed through […] cell strainer to achieve single cell suspension. Cells were plated (MDA231: 1×10^4; MB436: 3×10^4; MB468: 4×10^4 cells/well, BT549: 3×10^4, MDA231-LM2: 3×10^4) seeded in 6-well ultra-low attachment plates (Corning, Corning, N.Y., cat: CLS3471) in Mammocult medium (Stem cell Technologies, Vancouver, BC, Canada), supplemented with fresh hydrocortisone (0.51 μg/ml) and heparin (1:500). Tumorspheres were cultured for 7 days prior to being counted and photographed. Imaging and quantification were done using GelCount™ apparatus and associated software (Oxford Optronix, Abingdon, UK). For serial passages of tumorsphere formation assay, the spheres were collected by gentle centrifugation, dissociated to single cells for passaging tumorspheres every 14 days and counted. Tumorspheres were photographed and quantified 7-12 days later using a GelCount Colony Counter after staining with INT."}, "MDA231-PR cells": {"test_system": "MDA231-PR cells", "test": "Cell viability IC50 curves, sensitivity of paclitaxel-resistant cells to agents", "excerpt": "FIG. 17. (a). IC50 curves showing cell viability after treatment with paclitaxel (PTX), vincristine (VCR), gemcitabine, doxorubicin (ADR), cisplatin, 5-fluorouracil (5-FU) and pacritinib in parental and pacitaxel-treated MDA-MB-231 (MDA231-PR) cells. (b). Graphical representation of relative sensitivities. (c).\nas §2"}, "[3]": {"test_system": "ALDH-positive cell population", "test": "ALDEFLUOR assay", "details": "after paclitaxel treatment", "description": "ALLEFLUOR assay was performed using the manufacturer's recommended protocol (ALDEFLUOR kit, Stemcell Technologies; catalogue number: #01700). In brief, one million single-cell suspensions were centrifuged and resuspended in ALDEFLUOR assay buffer supplied in the kit. Each sample cells were incubated with or without an ALDH-specific inhibitor 15 mM diethylaminobenzaldehyde in the presence of 0.15 mM ALDH substrate. ALDEFLUOR stainings were detected using fluorescein isothiocyanate channel of a FACSCalibur Flow Cytometry System (BD Biosciences) after 25 min incubation at 37° C. Diethylaminobenzaldehyde inhibitor control sample was used as sorting gate reflecting background fluorescence levels for each cell lines."}, "SUM159PR or MDA231PR": {"test_system": "SUM159PR or MDA231PR", "test": "Acquired Paclitaxel resistance of stepwise-selected resistant sublines", "details": "SUM159PR kept in 1 μM, MDA231PR in 75 nM Paclitaxel", "description": "as §1"}}, "note": "pEC50: −log10 of the molar value. “Also recorded” adds a separate entry of the source.", "data": [{"smiles": "CC(=O)O[C@H]1C(=O)[C@@]2(C)[C@H]([C@H](OC(=O)c3ccccc3)[C@]3(O)C[C@H](OC(=O)[C@H](O)[C@@H](NC(=O)c4ccccc4)c4ccccc4)C(C)=C1C3(C)C)[C@]1(OC(C)=O)CO[C@@H]1C[C@@H]2O", "note": "[Paclitaxel]", "values": [{"measurement": "pEC50", "setting": "SUM159PT", "value": 8.41}, {"measurement": "induction of p-IRAK1 by chemotherapeutic agent", "setting": "p-IRAK1 (T209)", "value": "marked induction"}, {"measurement": "induction of p-IRAK1 by chemotherapeutic agent", "setting": "p-IRAK1 (T209); listed as paclitaxel", "value": "marked induction"}, {"measurement": "IRAK1 signaling activated by chemotherapeutic agents", "setting": "p-IRAK1 (T209); discussion statement", "value": "activated"}, {"measurement": "expression of IL1B, IL6 and IL8 mRNAs", "setting": "[1]", "value": "induced"}, {"measurement": "mammosphere forming capacity after Paclitaxel pretreatment", "setting": "[2]", "value": "increased mammosphere forming capacity"}, {"measurement": "mammosphere forming capacity after Paclitaxel pretreatment", "setting": "[2]; listed as paclitaxel", "value": "potentiated mammosphere formation"}, {"measurement": "shift of the IC50 curve", "setting": "MDA231-PR cells; MDA231-PR versus parental MDA-MB-231", "value": "marked right shift"}, {"measurement": "sensitivity of paclitaxel-resistant cells to agent", "setting": "MDA231-PR cells; paclitaxel-treated/resistant cells over-expressing p-IRAK1", "value": "markedly resistant; also recorded: no longer susceptible; also recorded: no longer responsive"}, {"measurement": "ALDH-positive cell population", "setting": "[3]", "value": "expansion of the ALDH-positive cell population"}, {"measurement": "fold more resistant than parental cell lines", "setting": "SUM159PR or MDA231PR", "value": "≥ 1000", "unit": "fold"}]}]}
